Data published in patent US8785388B2, “TAT-BH3 methods for treating arthritis” (Saint Louis University, priority 2007, dated 2014).
Square brackets hold non-standard residues; d marks the D form. Peptide text beside a SMILES is read from it. Orn = NCCC[C@H](N)C(=O)O

What was measured:
Format in all cases: in vivo, mice
IL-1β, TNFα, MCP-1, KC = assay: Circulating cytokine levels in serum; details: between saline, TAT-inactive BH3 and TAT-BH3 groups
Procedure: (§1) At each time point and prior to euthanasia, the degree of arthritis as indicated by joint swelling was quantitated by measuring two perpendicular diameters of the ankles using a caliper (Lange Caliper: Cambridge Scientific Industries, Cambridge Mass.). Joint circumference was calculated using the geometric formula of ellipse circumference (2πX √(a^2+b^2)/2). Following euthanasia, serum was isolated from peripheral blood by cardiac stick and ankle joints were removed. One of the ankle joints was fixed in 10% neutral buffered formalin for 24 hours, decalcified in EDTA-decalcification buffer for two weeks, embedded in paraffin, and sectioned. The other ankle joint was placed in liquid nitrogen, grounded into a fine powder by mortal and pestle, digested in protein lysis buffer ([…], 0.5% NP-40, 50 mM Tris, and 2 mM EDTA) in the presence of phosphatase and protease inhibitors, and homogenized on ice for 20 seconds. To examine any toxicity due to systemic delivery of TAT-Bim peptides, alkaline phosphatase (ALP), […] (AST), alanine aminotransferase (ALT), and blood urea nitrogen levels were measured.
TAT-BH3 peptides treatment reduces the numbers of myeloid cells in arthritic joints. […] To this end, the numbers of polymorphonuclear cell and macrophages in saline and BH3 peptide arthritic mice were quantified. […]

[1] = test system: K/B×N serum transfer-induced arthritis; assay: K/B×N serum transfer-induced arthritis, ankle circumference (joint swelling); details: for reduction of development of arthritis: day 4
From the text: The seven-week-old progeny from homozygous KRN TCR transgenic mice (C57BL/6 background) crossed with non-obese diabetes (NOD) mice (K/B×N) were euthanized, peripheral blood was isolated, and serum were collected and pooled. One hundred and fifty microliters of K/B×N serum were intraperitoneally injected on each flank of 6-week old wt mice.
as §1
Therefore, peptides to the BH3 domain of Bim were used that are fused to polycationic peptide derived from HIV-1 TAT. These peptides have shown to activate Bak and Bax, suppress Bcl-2 and Mcl-1, induce mitochondrial permeability, and release mitochondrial cytochrome c. Mice were intraperitoneally injected with K/B×N serum to induce the effector phase of inflammatory arthritis.

peripheral blood cells [2] = assay: Peripheral blood cell counts (flow cytometry, hematology analyzer); details: as compared to TAT-inactive BH3 and saline
[3] = test system: macrophages in arthritic joints; assay: Macrophage numbers in ankle sections stained for F4/80 antigen
From the text: FIG. 4A is representative photomicrograph of ankle sections stained for F4/80 antigen from saline- and BH3-peptide treated mice.
TAT-BH3 peptides treatment reduces the numbers of myeloid cells in arthritic joints. Neutrophils and macrophages are required for the development of K/B×N serum transfer induced arthritis 40-42. To this end, the numbers of polymorphonuclear cell and macrophages in saline and BH3 peptide arthritic mice were quantified. […] The milieu of the RA joint is crucial for the initiation and the perpetuation of inflammatory arthritis. Previous studies have shown that mice lacking Bim display increased levels of pro-inflammatory factors in the joint that is associated with increased numbers of neutrophils and macrophages and more articular destruction.

peripheral blood cells [4] = assay: Peripheral blood cell counts (flow cytometry, hematology analyzer)
Procedure: Peripheral blood and bone marrow were isolated from mice following euthanasia. Total leukocyte numbers were determined using an automated hematology analyzer ABX Pentra 60 (Diamond Diagnostics, Inc, Holliston, Mass.). The red blood cells in peripheral blood were lysed and the remaining cells were fixed with BD FACS lysing solution (BD Biosciences, Pharmingen) following incubation with antibodies. Bone marrow cells were isolated by flushing Dulbecco's Modified Eagle Medium (DMEM) (Gibco, Grand Island, N.Y.) through the tibias and red blood cells were lysed with BD PharM Lyse (BD Biosciences, Pharmingen) prior to incubation with antibodies. Cells with incubated with Fc Block (BD Biosciences, Pharmingen) then stained with fluorochrome conjugated antibodies to CD45, CD11b, Gr-1, CD62L, Ly-6C, Ly-6G, CD31 (BD Biosciences, Pharmingen) or isotype control antibodies for 30 minutes. Cells were acquired on a BD LSRII (BD Biosciences, Pharmingen) using Diva Software at the Saint Louis University Core Flow Cytometry Facility. All analysis was performed using FlowJo software (Tree Star Inc.).
Peripheral blood was isolated by cardiac sticks. Cells were blocked for 10 minutes with Fc block and then stained with anti-CD45, anti-CD19, anti-CD3, anti-CD4, anti-CDS, anti-CD11b, anti-Gr-1, and anti-CD62L antibodies for 30 minutes. Platelets and RBCs were determined on an automated hematology analyzer ABX Pentra 60. Following incubation with antibodies red blood cells were lysed and cells were fixed with Becton Dickenson FACS lysing solution.

[5] = test system: K/B×N serum transfer-induced arthritis; assay: Histopathological scoring of ankle sections (H&E, safranin O/methyl green)
Procedure: Paraffin embedded ankle or liver sections were stained with hematoxylin and eosin (H&E), Safranin O and methyl green. Histopathological scoring was performed and ankle sections were evaluated by examining at least 3 sections/ankle and 3 fields/section at 400× magnification. H&E ankle sections were scored on a 0-5 scale for inflammation, with 0=normal, 1=minimal infiltration, 2=mild infiltration, 3=moderate infiltration, […], mad 5=severe infiltration. Bone erosion was scored on a 0-5 scale by viewing H&E ankle sections, with 0=no or normal bone resorption, 1=small areas of resorption, 2=more numerous areas of resorption, 3=obvious resorption, 4=full thickness defects in the bone without distortion of the profile, 5=full thickness defects in the bone with distortion of the profile. H&E ankle stained sections were scored on a 0-5 scale for pannus formation, with 0=no pannus formation, 1=minimal pannus formation, 2=mild pannus formation, 3=moderate pannus formation, 4=marked pannus formation, and 5=severe pannus formation. H&E and Safranin 0 and methyl green sections were scored on a 0-5 scale for cartilage damage, with 0=no damage, 1-2=superficial cartilage destruction, 3-4=cartilage destruction to middle zone, 5=cartilage destruction to tide mark. Polymorphonuclear (PMN) leukocyte infiltration: 0=no PMNs, 1=rare scattered PMNs, 2=more frequent scattered PMNs, 3=small clusters of PMNs, 4=larger clusters of PMNs, mad 5=sheets of PMNs (abscess). Histopathological scoring was conducted on an Olympus BX40 microscope (1000×). Photographs were taken on a Nikon microscope equipped with the Nikon digital camera DMX 1200.
To accurately assess the degree of inflammation and destruction of cartilage and bone, ankle sections were examined using a histopathological scoring system on hematoxylin and eosin (H& E) or safranin O-methyl green stained ankle sections.

[6] = as compared to TAT-inactive BH3
[7] = as compared to TAT-inactive BH3 and saline
[8] = peripheral blood, hematology analyzer, mean ± standard error
[9] = peripheral blood, mean ± standard error
[10] = as compared to saline or TAT-inactive BH3

CC[C@H](C)[C@H](NC(=O)[C@H](CCCNC(=N)N)NC(=O)[C@H](CCCNC(=N)N)NC(=O)[C@H](CC(C)C)NC(=O)[C@H](CCC(=O)O)NC(=O)[C@H](CCC(N)=O)NC(=O)[C@H](C)NC(=O)[C@@H](NC(=O)[C@H](Cc1c[nH]c2ccccc12)NC(=O)[C@@H](NC(=O)[C@H](CCC(=O)O)NC(=O)[C@H](CCCNC(=N)N)NC(=O)[C@H](CCCNC(=N)N)NC(=O)[C@H](CCCNC(=N)N)NC(=O)[C@H](CCCN)NC(=O)[C@H](CCCNC(=N)N)NC(=O)[C@H](CCCNC(=N)N)NC(=O)[C@H](CCCCN)NC(=O)[C@H](CCCCN)NC(=O)[C@H](CCCNC(=N)N)NC(C)=O)[C@@H](C)CC)[C@@H](C)CC)C(=O)NCC(=O)N[C@@H](CC(=O)O)C(=O)N[C@@H](CCC(=O)O)C(=O)N[C@@H](Cc1ccccc1)C(=O)N[C@@H](CC(N)=O)C(=O)N[C@@H](C)C(=O)N[C@@H](Cc1ccc(O)cc1)C(=O)N[C@@H](Cc1ccc(O)cc1)C(=O)N[C@@H](C)C(=O)N[C@@H](CCCNC(=N)N)C(=O)O [TAT-BH3] (Ac-RKKRR[Orn]RRREIWIAQELRRIGDEFNAYYAR-OH)
circulating levels of IL-1β, TNFα, MCP-1, and KC in serum (IL-1β, TNFα, MCP-1, KC): no differences | change in ankle circumference ([1]; day 2 after K/B×N serum, 2 mg/kg i.p.): 0.1 mm | reduction of development of arthritis ([1]; as compared to TAT-inactive BH3 peptide): 72% | reduction of development of arthritis ([1]; as compared to saline): 80% | number of splenocytes (peripheral blood cells [2]): did not reduce | average number of macrophages in the synovial lining [3, 6]: no statistical difference | decrease in numbers of macrophages within the pannus region [3, 6]: 68% | decrease in numbers of macrophages within the pannus region ([3]; as compared to saline): 77% | decrease in platelets (peripheral blood cells [4]; [6]): 29% | number of circulating leukocytes (peripheral blood cells [4]; [7]): did not reduce | number of red blood cells (peripheral blood cells [4]; [7]): did not reduce | decrease in numbers of neutrophils in peripheral blood (peripheral blood cells [4]; as compared to TAT-inactive peptide and saline): 40% | decrease in platelets (peripheral blood cells [4]; as compared to saline): 23% | effect on platelet counts (peripheral blood cells [4]; general statement): minimal effect | Platelets (peripheral blood cells [4]; [8]): 930.3 ± 55.32 (1E6) | RBCs (peripheral blood cells [4]; [8]): 9.60 ± 0.42 (1E6) | B-cells+ (peripheral blood cells [4]; [9]): 2.51 ± 0.11 (1E6) | CD4+ T-cells (peripheral blood cells [4]; [9]): 1.25 ± 0.06 (1E6) | CD8+ T-cells (peripheral blood cells [4]; [9]): 0.86 ± 0.04 (1E6) | Inflammatory monocytes (peripheral blood cells [4]; [9]): 0.26 ± 0.03 (1E6) | N-K-cells (peripheral blood cells [4]; [9]): 0.23 ± 0.02 (1E6) | Resident Monocytes (peripheral blood cells [4]; [9]): 0.21 ± 0.02″ (1E6) | T-cells (peripheral blood cells [4]; [9]): 2.20 ± 0.10 (1E6) | Total Leukocytes (peripheral blood cells [4]; [9]): 6.2 ± 0.22 (1E6) | reduction in PMN score ([5]; as compared to TAT-inactive BH3 or saline): 69% | decrease in bone erosion score [5, 10]: 71% | reduction in inflammation [5, 10]: 72% | suppression of pannus formation [5, 10]: 79%
